# Assay results reported in patent publication US20120264735A1 (priority 2009, published 2012).
# Biological target: T1, c-Met kinase (recombinant c-Met) (Homo sapiens, UniProt P08581)
# T1 construct: 0.27 nM recombinant c-Met
# Test: In vitro kinase assay I (homogeneous time-resolved fluorescence tyrosine kinase assay)
# Format: biochemical
# Summary of the method: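 Biotinylated peptide (0.5 μM) phosphorylated by 0.2 nM recombinant c-Met with 50 μM MgATP, 60 min at room temperature, pH 7.4, 5% DMSO. EDTA stop; HTRF read with Eu-anti-phosphotyrosine antibody and streptavidin-APC. IC50 from 4-parameter logistic fit.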
# T1 sequence (P08581 25-1390): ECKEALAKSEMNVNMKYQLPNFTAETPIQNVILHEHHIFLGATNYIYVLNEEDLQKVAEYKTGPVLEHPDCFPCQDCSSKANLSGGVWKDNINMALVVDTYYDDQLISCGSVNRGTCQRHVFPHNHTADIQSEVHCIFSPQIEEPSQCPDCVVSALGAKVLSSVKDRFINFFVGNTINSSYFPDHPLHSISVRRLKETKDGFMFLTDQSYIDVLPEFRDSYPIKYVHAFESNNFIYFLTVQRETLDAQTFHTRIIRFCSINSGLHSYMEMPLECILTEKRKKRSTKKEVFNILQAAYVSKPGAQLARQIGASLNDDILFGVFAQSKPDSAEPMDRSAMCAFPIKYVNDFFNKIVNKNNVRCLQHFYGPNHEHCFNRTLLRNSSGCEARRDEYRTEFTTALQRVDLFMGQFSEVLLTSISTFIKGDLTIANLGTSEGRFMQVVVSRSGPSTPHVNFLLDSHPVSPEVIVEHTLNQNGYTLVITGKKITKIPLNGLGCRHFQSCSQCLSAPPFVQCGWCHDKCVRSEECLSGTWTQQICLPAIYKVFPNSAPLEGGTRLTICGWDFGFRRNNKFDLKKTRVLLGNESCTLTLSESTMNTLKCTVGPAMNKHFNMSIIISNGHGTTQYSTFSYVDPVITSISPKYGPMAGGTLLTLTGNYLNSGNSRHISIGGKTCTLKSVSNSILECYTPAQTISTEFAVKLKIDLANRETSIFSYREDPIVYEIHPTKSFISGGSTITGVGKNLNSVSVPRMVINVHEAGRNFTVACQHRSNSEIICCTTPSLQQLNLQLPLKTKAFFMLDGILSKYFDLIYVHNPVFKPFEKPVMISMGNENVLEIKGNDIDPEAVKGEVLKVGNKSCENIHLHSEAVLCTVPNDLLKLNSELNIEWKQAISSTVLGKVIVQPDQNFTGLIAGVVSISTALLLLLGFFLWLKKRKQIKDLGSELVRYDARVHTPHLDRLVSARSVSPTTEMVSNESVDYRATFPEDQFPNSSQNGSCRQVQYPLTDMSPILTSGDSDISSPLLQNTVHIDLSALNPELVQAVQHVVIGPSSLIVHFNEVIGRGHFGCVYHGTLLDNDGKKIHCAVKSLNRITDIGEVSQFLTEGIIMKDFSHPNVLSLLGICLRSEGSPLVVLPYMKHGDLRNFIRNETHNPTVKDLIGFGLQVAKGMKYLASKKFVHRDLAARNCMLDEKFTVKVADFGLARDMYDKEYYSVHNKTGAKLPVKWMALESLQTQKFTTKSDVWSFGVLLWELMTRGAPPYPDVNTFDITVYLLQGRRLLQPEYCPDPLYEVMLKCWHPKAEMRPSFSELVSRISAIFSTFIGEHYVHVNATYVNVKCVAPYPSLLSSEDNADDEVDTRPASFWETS
row,SMILES,IC50 [nM]
1,"CC(C)COC(=O)Nc1cccc(Cc2nn(-c3cnn(CCC(=O)O)c3)ccc2=O)c1 [Example 182, 3-{4-[3-(3-{[(2-methylpropoxy)carbonyl]amino}benzyl)-4-oxopyridazin-1(4H)-yl]-1H-pyrazol-1-yl}propanoic acid]",< 100
2,"O=C(Nc1cccc(Cc2nn(-c3cc(F)cc(F)c3)ccc2=O)c1)OCC1COCCO1 (racemic) [Example 520, rac-1,4-dioxan-2-ylmethyl (3-{[1-(3,5-difluorophenyl)-4-oxo-1,4-dihydropyridazin-3-yl]methyl}phenyl)carbamate]",< 100
3,"COc1cnc(-c2cccc(C(C)c3nn(-c4cnn(C)c4)ccc3=O)c2)nc1 (single isomer, unassigned) [Example 204, 3-{(1R or S)-1-[3-(5-methoxypyrimidin-2-yl)phenyl]ethyl}-1-(1-methyl-1H-pyrazol-4-yl)pyridazin-4(1H)-one]",< 100
4,"CCn1cc(-n2ccc(=O)c(C(C)c3cccc(-c4ncc(OCCOC)cn4)c3)n2)cn1 (single isomer, unassigned) [Example 247, 1-(1-ethyl-1H-pyrazol-4-yl)-3-((1S or R)-1-{3-[5-(2-methoxyethoxy)primidin-2-yl]phenyl}ethyl)pyridazin-4(1H)-one]",100 to 1000
5,"CC(C)COC(=O)Nc1cccc(Cc2nn(-c3cnn(CCN)c3)ccc2=O)c1 [Example 648, 2-methylpropyl [3-({1-[1-(2-aminoethyl)-1H-pyrazol-4-yl]-4-oxo-1,4-dihydropyridazin-3-yl}methyl)phenyl]carbamate]",< 100
6,"COCCOc1cnc(-c2cccc(Cc3nn(-c4ccc(C#N)cc4)ccc3=O)c2)nc1 [Example 138, 4-[3-{3-[5-(2-methoxyethoxy)pyrimidin-2-yl]benzyl}-4-oxopyridazin-1(4H)-yl]benzonitrile]",< 100
7,"Cn1cc(-n2ccc(=O)c(Cc3cccc(-c4ncn(CC(F)(F)CN5CCOCC5)n4)c3)n2)cn1 [Example 712, 3-{3-[1-(2,2-difluoro-3-morpholin-4-ylpropyl)-1H-1,2,4-triazol-3-yl]benzyl}-1-(1-methyl-1H-pyrazol-4-yl)pyridazin-4(1H)-one]",< 100
8,"Cn1cc(-n2ccc(=O)c(Cc3cccc(NC(=O)OCCF)c3)n2)cn1 [Example 499, 2-fluoroethyl (3-{[1-(1-methyl-1H-pyrazol-4-yl)-4-oxo-1,4-dihydropyridazin-3-yl]methyl}phenyl)carbamate]",< 100
9,"CCOC(=O)Nc1cccc(C(C)c2nn(-c3ccccc3)ccc2=O)c1 (racemic) [Example 651, rac-Ethyl {3-[1-(4-oxo-1-phenyl-1,4-dihydropyridazin-3-yl)ethyl]phenyl}carbamate]",100 to 1000
10,"CN1CCN(c2cnc(-c3cccc(Cc4nn(-c5cnn(C)c5)ccc4=O)c3)nc2)CC1 [Example 467, 3-{3-[5-(4-methyl-piperazin-1-yl)pyrimidin-2-yl]benzyl}-1-(1-methyl-1H-pyrazol-4-yl)pyridazin-4(1H)-one]",< 100
11,"COCCN(C)c1cnc(-c2cccc(Cc3nn(-c4cnn(C)c4)ccc3=O)c2)nc1 [compound 457, 3-(3-{5-[(2-methoxyethyl) (methyl)amino]pyrimidin-2-yl}benzyl)-1-(1-methyl-1H-pyrazol-4-yl)pyridazin-4(1H)-one]",< 100
12,"CNCCOC(=O)Nc1cccc(Cc2nn(-c3cc(F)c(F)c(F)c3)ccc2=O)c1 [Example 622, 2-(methylamino)ethyl (3-{[4-oxo-1-(3,4,5-trifluorophenyl)-1,4-dihydropyridazin-3-yl]methyl}phenyl)carbamate]",< 100
13,"CCCOC(=O)Nc1cccc(Cc2nn(-c3cc(F)c(Br)c(F)c3)ccc2=O)c1 [Example 16, propyl (3-{[1-(4-bromo-3,5-difluorophenyl)-4-oxo-1,4-dihydropyridazin-3-yl]methyl}phenyl)carbamate]",< 100
14,"Cn1cc(-n2ccc(=O)c(Cc3cccc(-c4ncc(OC5COC5)cn4)c3)n2)cn1 [Example 164, 1-(1-methyl-1H-pyrazol-4-yl)-3-{3-[5-(oxetan-3-yloxy)pyrimidin-2-yl]benzyl}pyridazin-4(1H)-one]",< 100

# Results, then the compound that gave them:
row,IC50 [nM],SMILES
1,1000 to 3000,"Cn1cc(-n2ccc(=O)c(Cc3ccc4occc4c3)n2)cn1 [Example 51, 3-(1-benzofuran-5-ylmethyl)-1-(1-methyl-1H-pyrazol-4-yl)pyridazin-4(1H)-one]"
2,100 to 1000,"COCCc1nc(-c2cccc(Cc3nn(-c4cnn(C)c4)ccc3=O)c2)no1 [Example 744, 3-{3-[5-(2-methoxyethyl)-1,2,4-oxadiazol-3-yl]benzyl}-1-(1-methyl-1H-pyrazol-4-yl)pyridazin-4(1H)-one]"
3,100 to 1000,"CC(c1cccc(-c2ncc(OC(F)F)cn2)c1)c1nn(-c2cnn(C)c2)ccc1=O (single isomer, unassigned) [Example 209, 3-[(1S or R)-1-{3-[5-(difluoromethoxy)pyrimidin-2-yl]phenyl}ethyl]-1-(1-methyl-1H-pyrazol-4-yl)pyridazin-4(1H)-one]"
4,< 100,"O=c1ccn(-c2ccc(F)c(F)c2)nc1Cc1cccc(-c2ncc(OCC3COCCO3)cn2)c1 (single isomer, unassigned) [Example 345, 1-(3,4-difluorophenyl)-3-(3-{5-[(2R or S)-1,4-dioxan-2-ylmethoxy]pyrimidin-2-yl}benzyl)pyridazin-4(1H)-one]"
5,< 100,"O=c1ccn(-c2ccc(F)c(F)c2)nc1Cc1cccc(-c2ncc(OCC3COCCO3)cn2)c1 (single isomer, unassigned) [Example 346, 1-(3,4-difluorophenyl)-3-(3-{5-[(2S or R-1,4-dioxan-2-ylmethoxy]pyrimidin-2-yl}benzyl)pyridazin-4(1H)-one]"
6,< 100,"CC(c1cccc(-c2ncc(OC3CCOCC3)cn2)c1)c1nn(-c2cnn(C)c2)ccc1=O (single isomer, unassigned) [Example 211, 1-(1-methyl-1H-pyrazol-4-yl)-3-[(1S or R)-1-{3-[5-(tetrahydro-2H-pyran-4-yloxy)pyrimidin-2-yl]phenyl}ethyl]pyridazin-4(1H)-one]"
7,< 100,"N#Cc1ccc(-n2ccc(=O)c(Cc3cccc(NC(=O)OCC4CCOC4)c3)n2)cc1 (racemic) [Example 139, rac-tetrahydrofuran-3-ylmethyl (3-{[1-(4-cyanophenyl)-4-oxo-1,4-dihydropyridazin-3-yl]methyl}phenyl)carbamate]"
8,100 to 1000,"CCn1cc(-n2ccc(=O)c(C(C)c3cccc(-c4ncc(OC)cn4)c3)n2)cn1 (single isomer, unassigned) [Example 332, 1-(1-ethyl-1H-pyrazol-4-yl)-3-{(1S or R)-1-[3-(5-methoxypyrimidin-2-yl)phenyl]ethyl}pyridazin-4(1H)-one]"
9,< 100,"Cn1cc(-n2ccc(=O)c(Cc3cccc(-c4ncc(C(=O)NCCN5CCOCC5)cn4)c3)n2)cn1 [Example 477, 2-(3-{[1-(1-methyl-1H-pyrazol-4-yl)-4-oxo-1,4-dihydro-pyridazin-3-yl]methyl}phenyl)-N-(2-morpholin-4-ylethyl)pyrimidine-5-carboxamide]"
10,100 to 1000,"Cn1cc(-n2ccc(=O)c(Cc3cccc(-c4ncc(CNC5CCCCC5)cn4)c3)n2)cn1 [Example 432, 3-(3-{5-[(cyclohexyl-amino)methyl]pyrimidin-2-yl}benzyl)-1-(1-methyl-1H-pyrazol-4-yl)pyridazin-4(1H)-one]"
11,< 100,"CCn1cc(-n2ccc(=O)c(Cc3cccc(-c4ncc(OCc5noc(C)n5)cn4)c3)n2)cn1 [Example 314, 1-(1-ethyl-1H-pyrazol-4-yl)-3-(3-{5-[(5-methyl-1,2,4-oxadiazol-3-yl)methoxy]pyrimidin-2-yl}benzyl)pyridazin-4(1H)-one]"
12,< 100,"CCCn1cnc(-c2cccc(Cc3nn(-c4cc(F)cc(C#N)c4)ccc3=O)c2)n1 [Example 81, 3-fluoro-5-{4-oxo-3-[3-(1-propyl-1H-1,2,4-triazol-3-yl)benzyl]pyridazin-1(4H)-yl}benzonitrile]"
13,< 100,"Cn1cc(-c2cnc(-c3cccc(Cc4nn(-c5cc(Cl)cc(C#N)c5)ccc4=O)c3)nc2)cn1 [Example 158, 3-chloro-5-[3-{3-[5-(1-methyl-1H-pyrazol-4-yl)pyrimidin-2-yl]benzyl}-4-oxopyridazin-1(4H)-yl]benzonitrile]"
14,< 100,"CC(c1cccc(-c2ncc(OC(C)C(C)(C)O)cn2)c1)c1nn(-c2cnn(C)c2)ccc1=O (single isomer, unassigned) [Example 384, 3-{(1R or S)-1-[3-(5-{[(1R or S)-2-hydroxy-1,2-dimethylpropyl]oxy}pyrimidin-2-yl)phenyl]ethyl}-1-(1-methyl-1H-pyrazol-4-yl)pyridazin-4(1H)-one]"
15,< 100,"COCCCOc1cnc(-c2cccc(Cc3nn(-c4cccc(C#N)c4)ccc3=O)c2)nc1 [Example 322, 3-[3-{3-[5-(3-methoxypropoxy)pyrimidin-2-yl]benzyl}-4-oxopyridazin-1(4H)-yl]benzonitrile]"
16,< 100,"Cn1cc(-n2ccc(=O)c(Cc3cccc(-c4ncc(C5CCNCC5)cn4)c3)n2)cn1 [Example 200, 1-(1-Methyl-1H-pyrazol-4-yl)-3-{3-[5-(piperidin-4-yl)pyrimidin-2-yl]benzyl}pyridazin-4(1H)-one]"
17,< 100,"Cn1cc(-n2ccc(=O)c(Cc3cccc(-c4ncc(OCC(O)c5ccncc5)cn4)c3)n2)cn1 (racemic) [Example 367, rac-3-(3-{5-[2-hydroxy-2-(pyridin-4-yl)ethoxy]pyrimidin-2-yl}benzyl)-1-(1-methyl-1H-pyrazol-4-yl)pyridazin-4(1H)-one]"
18,< 100,"CC(C)COC(=O)Nc1cccc(Cc2nn(-c3cnn(CCO)c3)ccc2=O)c1 [Example 645, 2-methylpropyl [3-({1-[1-(2-hydroxyethyl)-1H-pyrazol-4-yl]-4-oxo-1,4-dihydropyridazin-3-yl}methyl)phenyl] carbamate]"
19,< 100,"CCOC(=O)Nc1cccc(Cc2nn(-c3cc(F)c(F)c(F)c3)ccc2=O)c1 [Example 2, Ethyl(3-{[4-oxo-1-(3,4,5-trifluorophenyl)-1,4-dihydropyridazin-3-yl]methyl}phenyl)carbamate]"
